Data taken from PubChem BioAssay AID2740 (NMMLSC, 2010).
Where “and” joins values, the source holds several entries; their conditions need not be identical. Equal entries are not always repeated. Calls of active or inactive are those of the source.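 Rule for the calls: active = compounds whose fitted half-maximal concentration for changing the GFP signal is at or below a set limit; inactive = the rest.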

assay: TOR pathway RPL19A-GFP modulators, concentration series – cell-based, S. cerevisiae, flow cytometry, MLPCN hits, dose response (AID 2740);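 note: background is signal of the same compound in parental non-GFP s288c yeast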; conditions: S. cerevisiae RPL19A-GFP strain, flow cytometry fluorescence, 3 h; at 33 µM (top of the series)

SMILES	GFP fluorescence, lower = active (kMESF (background-subtracted))
COc1ccccc1OCCCc1c(C)n[nH]c1C	37.6 (inactive)
CN(O)/C=c1/ccc2c(n1)C(=O)C=CC=2	39.2 (inactive)
Cc1c(NC2=C(Cl)C(=O)N(c3ccccc3Cl)C2=O)c(=O)n(-c2ccccc2)n1C	38.7 (inactive)
CCc1ccc(C(=O)/C=C/c2ccc([N+](=O)[O-])o2)cc1	48.7 (inactive)
CC(C)C[C@]1(c2ccccc2)ON(c2ccccc2C(F)(F)F)C1=O	36.6 (inactive)
Cc1ccc(S(=O)(=O)c2ncccc2[N+](=O)[O-])cc1	47.4 (inactive)
Cc1[nH]c(-c2ccccn2)nc(=S)c1Cl	30.8 (inactive)
O=c1c2sc(-c3ccccc3)cc2nc2n1CCC2	20.5 (inactive)
O=C(Nc1nnc(-c2ccc3c(c2)CCCC3)o1)c1ccc(Cl)cc1Cl	37.2 (inactive)
O=C1C(Cl)=C(N2CCN(Cc3ccccc3)CC2)C(=O)N1c1ccccc1	40.2 (inactive)
CC(=O)n1cc(C(C[N+](=O)[O-])SCCN)c2ccccc21 (stereo not drawn)	21.4 (inactive)
Fc1cccc(Nc2ncnc3c2cnn3-c2ccccc2)c1	35.1 (inactive)
O=C1N(c2ccccc2C(F)(F)F)O[C@]1(c1ccccc1)C1CCCC1	36.6 (inactive)
COc1cc(N=c2ssnc2Cl)c(OC)cc1Cl	22.5 (inactive) and 23.2 (inactive)
O=C(c1ccccn1)c1conc1C(=O)c1ccc(Br)cc1	38.5 (inactive)
Oc1ccc2ccccc2c1/C=N/Nc1nnc(-c2ncc[nH]2)c2ccccc12	4.23 (inactive)
O/C=c1\ccc2cccc3nc(C(F)(F)F)nc1c23	53.9 (inactive)

SMILES	GFP fluorescence, lower = active (kMESF (background-subtracted))
COc1cccc(/C=C/C(=O)c2c(O)cc(C)oc2=O)c1O	40.4 (inactive)
CCN1/C(=C/c2ccc3cc(C)ccc3[n+]2CC)Sc2ccc3sccc3c21	31.5 (inactive)
Cc1sc(/C=C2\C(=O)ON=C2c2ccccc2)cc1Br	45 (inactive)
O=C(Nc1cccc(-c2csc(Nc3ccccc3)n2)c1)c1ccccc1	33.7 (inactive)
CC(C)CC(=O)NC(=S)Nc1nc(-c2ccccc2)cs1	38.4 (inactive)
CC(OC(=O)c1ccco1)C(=O)Nc1nc(-c2ccccc2)cs1 (stereo not drawn)	37.1 (inactive)
Cc1cc(C)c2c(c1)/C(=C/C(=O)c1ccc(Br)s1)C(=O)N2	46.6 (inactive)
COc1ccc([C@@]2(C(C)C)ON(c3ccccc3C(F)(F)F)C2=O)cc1	45.9 (inactive)
COc1ccc(OC)c(S(=O)(=O)ON2C(=O)c3ccccc3C2=O)c1	25.6 (inactive)
CCN(CC)c1ccc2cc(-c3nc(-c4ccc(OC)cc4)cs3)c(=O)oc2c1	40 (inactive)
CCCCCCCCCCCCCCCC[n+]1cccc2ccccc21	1.36 (inactive)
O=C(c1ccc([N+](=O)[O-])o1)N1CCN(c2nc3c(F)cc(F)cc3s2)CC1	31.7 (inactive)
O=C(Cc1ccc(Cl)cc1)NNC(=S)NC(=O)c1cccs1	45.9 (inactive)
O=C1Nc2ccccc2/C1=C\C(=O)c1ccccc1	34.2 (inactive)
COc1cc(/C=C2/C(=O)c3cccc([N+](=O)[O-])c3C2=O)c(Br)cc1O	43.9 (inactive)
O=C(Oc1ccnc2cc(Cl)ccc12)N1CCCCCC1	25.6 (inactive)
